Earlier results in patent publication US20080317753A1, “SELECTING PATIENTS FOR THERAPY WITH A HER INHIBITOR” (GENENTECH, INC., priority 2004, published 2008).
Where a name gives a salt, the structure may show the parent alone.

Key:
[1] = test system: HER2-overexpressing metastatic breast cancers; conditions: patients with HER2-overexpressing metastatic breast cancers with extensive prior anti-cancer therapy
[2] = combined with gemcitabine in several combinations of different chemotherapies, phase II trials
[3] = single agent

Compound	clinical activity [1]	tolerability [2]	nausea and vomiting, combined incidence [3] [%]
trastuzumab: recombinant humanized version of murine HER2 antibody 4D5; light and heavy chain sequences SEQ ID NOS. 15 and 16	clinically active	well tolerated with no observed cardiac or unexpected toxicities	
Nc1ccn([C@@H]2O[C@H](CO)[C@@H](O)C2(F)F)c(=O)n1 [gemcitabine, 2′-deoxy-2′,2′-difluorocytidine monohydrochloride (b-isomer)]			69
